This is an account of results in patent US8962659B2, “Phenoxyethyl piperidine compounds” (Eli Lilly and Company, priority 2012, dated 2015).

The target in one assay is human EP1 (Homo sapiens (Human), UniProt P34995). The experiment in a line: In vitro binding to human EP1 ([3H]-PGE2 displacement, membranes). The note with it: [3H]-PGE2, HEK293 membranes; read-out: hEP1, Ki. The procedure: (§1) hEP1 and hEP4 membranes are prepared from recombinant HEK293 cells stably expressing the human EP1 (Genbank accession number AY275470) or EP4 (Genbank accession number AY429109) receptors. hEP2 and hEP3 membranes are prepared from HEK293 cells transiently transfected with EP2 (Genbank accession number AY275471) or EP3 (isoform VI: Genbank accession number AY429108) receptor plasmids. Frozen cell pellets are homogenized in homogenization buffer using a Teflon/glass homogenizer. Membrane protein is aliquoted and quick frozen on dry ice prior to storage at -80° C. Homogenization buffer contained 10 mM Tris-HCl, pH 7.4, 250 mM sucrose, 1 mM EDTA, 0.3 mM indomethacin and plus CompleteTM, with EDTA, obtained from Roche Molecular Biochemicals (Catalog Number 1 697 498). Kd values for [3H]-PGE2 binding to each receptor are determined by saturation binding studies or homologous competition. […] Nonspecific binding is calculated by comparing binding in the presence and absence of 2 μM of PGE2. The membranes are harvested by filtration (TomTek harvester), washed 4 times with cold buffer (10 mM MES pH 6.0 with KOH, 10 mM MgCl2), dried in a 60° C. oven, and the radioactivity is quantified as counts per minute (CPM) using a TopCount detector. Percent specific binding is calculated as the percent of the binding in the absence of any inhibitor, corrected for binding in the presence of 2 μM of PGE2.

Another assay has as its target human EP2 (Homo sapiens (Human), UniProt P43116). Description: In vitro binding to human EP2 ([3H]-PGE2 displacement, membranes). The note with it: [3H]-PGE2, HEK293 membranes; n = 3; read-out: hEP2, Ki. The procedure: as §1
The target of another assay is rat EP4 (Rattus norvegicus (Rat), UniProt P43114). Description: In vitro rat EP4 functional antagonist activity (PGE2-stimulated cAMP, HTRF, HEK293). Type of assay: cell-based. The note with it: inhibition of PGE2 (EC80)-stimulated cAMP, read-out: IC50 measured at rat EP4.
The next assay concerns the target human EP3 (isoform VI) (Homo sapiens (Human), UniProt P43115). The experiment in a line: In vitro binding to human EP3 ([3H]-PGE2 displacement, membranes). To be noted: [3H]-PGE2, HEK293 membranes; read-out: hEP3, Ki. The procedure: as §1

Structures can show the parent of a compound that is named as a salt.

Chain of human EP3 (isoform VI) (P43115 other isoform, or with tags, fused parts or gaps isoform P43115-4): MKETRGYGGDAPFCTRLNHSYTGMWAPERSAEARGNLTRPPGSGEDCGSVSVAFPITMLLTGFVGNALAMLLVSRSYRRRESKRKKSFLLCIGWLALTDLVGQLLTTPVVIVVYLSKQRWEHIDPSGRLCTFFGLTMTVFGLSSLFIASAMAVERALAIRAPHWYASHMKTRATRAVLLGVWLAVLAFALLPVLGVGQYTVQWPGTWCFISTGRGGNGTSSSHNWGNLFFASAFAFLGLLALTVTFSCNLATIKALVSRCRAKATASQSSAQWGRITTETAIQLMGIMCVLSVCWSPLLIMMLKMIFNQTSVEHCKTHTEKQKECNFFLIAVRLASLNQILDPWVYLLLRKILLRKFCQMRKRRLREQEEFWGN
Chain of human EP1 (P34995 whole entry, canonical isoform): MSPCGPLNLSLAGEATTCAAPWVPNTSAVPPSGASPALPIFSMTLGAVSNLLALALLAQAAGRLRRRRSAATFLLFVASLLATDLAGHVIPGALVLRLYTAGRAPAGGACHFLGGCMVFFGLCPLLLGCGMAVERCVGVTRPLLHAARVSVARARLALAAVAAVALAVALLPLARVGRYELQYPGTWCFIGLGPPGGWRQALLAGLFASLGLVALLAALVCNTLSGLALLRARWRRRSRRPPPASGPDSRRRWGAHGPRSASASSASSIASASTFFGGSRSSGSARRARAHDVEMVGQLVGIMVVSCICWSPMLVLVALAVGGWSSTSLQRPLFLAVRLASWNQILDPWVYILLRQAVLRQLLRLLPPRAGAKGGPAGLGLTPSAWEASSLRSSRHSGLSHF
Chain of human EP2 (P43116 whole entry): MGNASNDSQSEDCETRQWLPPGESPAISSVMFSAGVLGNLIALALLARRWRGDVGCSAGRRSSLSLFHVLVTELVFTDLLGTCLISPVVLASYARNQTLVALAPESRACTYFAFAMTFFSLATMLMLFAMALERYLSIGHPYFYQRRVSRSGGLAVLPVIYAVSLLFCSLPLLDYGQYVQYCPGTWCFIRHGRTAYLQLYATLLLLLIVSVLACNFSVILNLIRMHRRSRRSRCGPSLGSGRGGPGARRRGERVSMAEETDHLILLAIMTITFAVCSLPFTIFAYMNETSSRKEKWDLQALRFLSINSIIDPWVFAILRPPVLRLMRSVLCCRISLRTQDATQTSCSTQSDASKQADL
Chain of rat EP4 (P43114 whole entry, canonical isoform): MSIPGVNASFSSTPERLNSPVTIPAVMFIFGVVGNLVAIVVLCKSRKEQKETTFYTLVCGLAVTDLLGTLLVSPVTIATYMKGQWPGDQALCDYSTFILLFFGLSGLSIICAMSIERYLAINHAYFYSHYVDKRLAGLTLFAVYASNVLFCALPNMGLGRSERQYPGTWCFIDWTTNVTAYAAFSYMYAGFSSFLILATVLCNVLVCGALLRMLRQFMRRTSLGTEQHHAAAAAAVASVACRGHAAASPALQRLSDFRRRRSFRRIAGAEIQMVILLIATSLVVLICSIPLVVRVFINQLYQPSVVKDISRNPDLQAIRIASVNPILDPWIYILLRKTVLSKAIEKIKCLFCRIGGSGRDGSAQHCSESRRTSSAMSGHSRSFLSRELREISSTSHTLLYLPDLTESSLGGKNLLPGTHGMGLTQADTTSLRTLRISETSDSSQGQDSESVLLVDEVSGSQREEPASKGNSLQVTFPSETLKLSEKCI
Method for rat EP4: Rat EP4 cDNA (Genebank Accession# NM—03276) is cloned into pcDNA 3.1 vector and subsequently transfected in HEK293 cells for receptor expression. Rat EP4 stable clone is scaled up and then frozen down as cell bank for future compounds screening. To test EP4 antagonist compounds in rEP4 cells, thaw the frozen cells and then resuspend cells in cAMP assay buffer. […] The cells are plated into 96-well half area flat-bottom polystyrene black plates (Costar 3694). […] Then diluted compounds are added into cAMP assay buffer which contains PGE2 (Cayman 14010, in a concentration predetermined to produce an EC80) at ratio of DMSO/buffer at 1/100. The cells are treated with compounds in the presence of PGE2 (EC80 concentration) for 30 minutes at room temperature. The cAMP levels generated from the cells are quantified by a cAMP HTRF assay kit (Cisbio 62AM4PEC). The plates are read on an EnVision plate reader using HTRF optimized protocol (PerkinElmer). IC50s are calculated using Graphpad Prism (v. 4) nonlinear regression, sigmoidal dose response curve fitting.

By Ki is commonly meant a measure of affinity in units of concentration, obtained from inhibition or displacement. Usually IC50 stands for the concentration needed to halve the response being measured. For `C[C@H](NC(=O)[C@H]1CCCCN1CCOc1ccccc1)c1ccc(C(=O)O)cc1` [Example 1, 4-[(1S)-1-[[(2R)-1-(2-phenoxyethyl)piperidine-2-carbonyl]amino]ethyl]benzoic acid hydrochloride], the Ki at human EP1 is more than 17500 nM; on human EP2 it was 1550 ± 1860 nM; at human EP3 (isoform VI) it was more than 14000 nM. Also, at rat EP4, the IC50 turned out to be 15 nM.
